Experiment [1] deals with T1, sstr2 (Homo sapiens, UniProt P30874).
T1 construct: with 1×10^6 THP-1 cells in Gey's Balanced Salt Solution, 10 nM [^3H]-BN83250; endogenous in cells; host or cells: THP-1 cells (intact cells, 4 °C)
Briefly: [3H]-BN83250 equilibrium binding to THP-1 cells (Scatchard/competition). The method, then: Methods: [^3H]-BN83250 was synthesesized from (S,E)-3-(2′,2′-dimethyldodec-4′-enoylamino)-caprolactam by catalytic hydrogenation using tritium gas over a palladium catalyst (CRB Ltd, Cleveland, UK), yielding the tritiated product at a concentration of 270 μM in ethanol with a specific activity of 220Ci/mmol. The (S,E)-3-(2′,2′-dimethyldodec-4′-enoylamino)-caprolactam was prepared as follows: (S,S)-3-amino-caprolactam hydro-pyrrolidine-5-carboxylate (10 mmol) and Na2CO3 (30 mmol) in water (30 ml) were added to a solution of 2,2-dimethyl-dodec-4-enoyl chloride (10 mmol) in dichloromethane (30 ml) at ambient temperature and the reaction was stirred for 12 hours. The organic layer was then separated and the aqueous phase was extracted with additional dichloromethane (2×25 ml). The combined organic layers were dried over Na2CO3 and reduced in vacuo. The residue was purified by silica column chromatography (1:1 EtOAc:hexanes to EtOAc) to give (S,E)-3-(2′,2′-dimethyl-dodec-4′-enoyl)amino-caprolactam as a colourless oil (2.12 g, 63%). The radiolabelled compound was stored in the dark at 4° C. until required. Prior to use the specific activity was adjusted by addition of unlabelled BN83250.
For the analysis of binding, individual reactions were set up (in triplicate for each condition), with 1×10^6 THP-1 cells in Gey's Balanced Salt Solution, 10 nM [^3H]-BN83250 (at 50 Ci/mmol) and various concentrations of (S)-3(2′2′-dimethylpropionoylamino)-tetrahydropyridin-2-one (10 pM to 10 μM). Excess (100 μM) unlabelled BN83250 was used to determine the level of non-specific binding. After 2 hours at 4° C. (conditions previously shown to achieve equilibrium binding, and which prevent uptake of the radioligand that would result in an over-estimate of binding) excess label was washed away by centrifugation (3 washes with 5 ml of Gey's Balanced Salt Solution) and the bound radioactivity was determined by scintillation counting of the solubilised cell pellet.
Hits from this assay were confirmed using conventional Scatchard analysis, exactly as described in Example 4 above.

In experiment [2] the test system is TNF-alpha. Briefly: Sub-lethal endotoxemia model, serum TNF-alpha after LPS. It counts as in vivo, mouse. As for the experimental part: We selected the sub-lethal endotoxemia model in mouse, because this has been well characterised in our laboratory (see for example Fox et al. (2002) J. Med. Chem. 45:360-70; Fox et al. (2005) J. Med. Chem. 48:867-74). The extent of systemic inflammation in response to a single intraperitoneal injection of bacterial lipopolysaccharide (LPS) can be estimated by measuring serum TNF-alpha 2 hours post challenge.
Methods: Mice (CD1 strain; adult males; 6 per group) were treated with BSCI (in an appropriate vehicle) or with vehicle alone by an appropriate route. […] Simultaneously, one set of mice at each BSCI concentration received BIM 23627 at 4 mg/animal (120 mg/kg) by sub-cutaneous injection (a treatment condition known to suppress classical sstr2-mediated signalling, such as GH release, in rats; Tulipano et al. (2002) 143:1218-24). Between 30 mins and 1 hour after dosing (a period when a maximal plasma concentration of BSCI has been achieved), the inflammatory challenge was elicited by intraperitoneal injection of 750 μg of LPS (Sigma; L4130 lot#024K4077; 900,000 EU/mg).
After a further 2 hours, the animals were sacrificed by CO2 asphyxiation, and blood was drawn by cardiac puncture. Serum was prepared by conventional methods, and the level of TNF-alpha in serum was measured using an ELISA (R&D Systems; Murine Quantikine code# MTA00) performed in accordance with the manufacturer's instructions.

The subject of experiment [3] is fetal rat pituicytes. Briefly: Rat pituicyte GH suppression assay. The experiment is classed as cell-based. As to conditions: Table 3; suppression compared to vehicle. An excerpt: (§1) Two different assays for “classical” sstr2 functions were adopted: (1) cultured foetal rat pituitary cells secreted growth hormone which is inhibited by sstr2 agonists in a dose-dependent fashion and (2) selected glucose-sensitive sub-clones of the human Panc-1 cell line secrete insulin which is inhibited by sstr2 agonists in a dose-dependent fashion.
Methods: Cultures of fetal rat pituicytes were established exactly as previously described (Murray et al. (2004) J. Clin. Endocrinol. Metab. 89:3027-32) by enzymatic dispersion. After 48 hrs in low glucose DMEM plus 10% FCS, cells in 48 well plates (5×10^4 cells per well) were washed for 4 hrs in serum-free DMEM and then incubated with test agents at various concentrations for a further 24 hrs in serum-free DMEM. At the end of this period, the conditioned medium was harvested, any cell debris removed by centrifugation and assayed for […] using a commercially available ELISA (Linco; cat# EZRMGH-45K) in accordance with the manufacturer's instructions.
(§2) Results were reported as the mean SD, expressed as the fold change from cells in the presence of vehicle only.

In experiment [4] the test system is rat peripheral blood leukocytes. Briefly: Rat chemokine-induced PBMC migration assay. The experiment is classed as cell-based. As to conditions: for “Classical”:“BSCI” potency ratio, Rat: PBMC migration ED50 versus pituicyte GH ED50; for Rat chemokine-induced PBMC migration assay Max effect: Table 3. The method, then: Similarly, where human Panc-2H4 cells are used to determine the effect of agents on classical sstr2 targets, the result is compared with the effect of the same agents on chemokine-induced migration of human THP-1 cells. […] For this reason, the ratio of “classical” to “BSCI” activity in Table 3 is calculated separately for rat and human.

For experiment [5], the system named is THP-1 cells. The experiment is described as follows: MCP-1 induced THP-1 cell migration (Transwell/ChemoTx). As to conditions: for “Classical”:“BSCI” potency ratio, Human: THP-1 migration ED50 versus Panc-2H4 insulin ED50; for Human chemokine-induced THP-1 migration assay Max effect: Table 3.
Description: Leukocyte migration was measured using the 96-well format micro Transwell® assay system from Neuroprobe (Gaithersburg, Md., USA). In principle, this assay consists of two chambers separated by a porous membrane. The chemoattractant is placed in the lower compartment and the cells are placed in the upper compartment.
First, the cell suspension to be placed in the upper compartment was prepared. The THP-1 cells were pelleted by centrifugation (770×g; 4 mins) and washed with Geys Balanced Salt Solution with 1 mg/ml BSA (GBSS+BSA). This wash was then repeated, and the cells re-pelleted before being resuspended in a small volume of GBSS+BSA for counting, for example using a standard haemocytometer.
This ensured that there were 100,000 THP-1 cells in each 25 μl of the solution to be placed in the upper chamber of the plate.
To the third pot, GBSS+BSA plus vehicle as appropriate was added so that the volumes in three pots are equal, acting as a control.
Next, the chemoattractant solution to be placed in the lower compartment was prepared. […] This solution was divided into three pots, as for the cell suspension. To one pot, the BSCI was added to the same final concentration as was added to the cell suspension, in the second pot the BSCI and the sstr2 antagonist were both added at the same concentration as previously added to the cell suspension, while to the remaining pot GBSS+BSA plus vehicle as appropriate was added so that the volumes in the three pots were equal.
Once the chemoattractant solutions for the lower wells and cell solutions for the upper chambers were prepared, the migration chamber was assembled. 29 μl of the appropriate chemoattractant solution was placed into the lower well of the chamber. Assays were performed with at least triplicate determinations of each condition. Once all the lower chambers were filled, the porous membrane was applied to the chamber in accordance with the manufacturer's instructions. Finally, 25 μl of the appropriate cell solution was applied to each upper chamber. A plastic lid was placed over the entire apparatus to prevent evaporation.
The assembled chamber was incubated at 37° C., 5% CO2, for 2 hours.
At the end of the incubation, the liquid cell suspension was gently removed from the upper chamber, 20 μl of ice-cold 20 mM EDTA in PBS was added to the upper chamber, and the apparatus was incubated at 4° C. for 15 mins. This procedure caused any cells adhering to the underside of the membrane to fall into the lower chamber.
After this incubation the filter was carefully flushed with GBSS+BSA to wash off the EDTA, and then the filter was removed.
The number of cells migrated into the lower chamber under each condition can then be determined by a number of methods, including direct counting, labelling with fluorescent or radioactive markers or through the use of a vital dye. Typically, we utilised the vital dye MTT. 3 μl of stock MTT solution were added to each well, and then the plate was incubated at 37° C. for 1-2 hours during which time dehydrogenase enzymes within the cells converted the soluble MTT to an insoluble blue formazan product that could be quantified spectrophotometrically.
In parallel, an 8-point standard curve was set up. Starting with the number of cells added to each upper chamber (100,000) and going down in 2-fold serial dilutions in GBSS+BSA, the cells were added to a plate in 25 with 3 μl of MTT stock solution added. The standard curve plate was incubated along side the migration plate. At the end of this incubation, the liquid was carefully removed from the lower chambers, taking care not to disturb the precipitated formazan product.
The MCP-1 stimulated migration was determined by subtracting the average number of cells that reached the lower compartment in wells where no MCP-1 was added from the average number of cells that reached the lower compartment where MCP-1 was present at 25 ng/ml.
For experiment [6], the system named is Panc-2H4 cells. Briefly: Human Panc-2H4 insulin suppression assay. It counts as cell-based. As to conditions: for EC50 / Human Panc-2H4 insulin suppression assay Max effect: Table 3; for EC50: read-out: Human Panc-2H4 insulin suppression assay ED50; for Human Panc-2H4 insulin suppression assay Max effect: suppression compared to vehicle; for inhibition of insulin secretion by Panc-2H4: highest concentrations tested.
Description: as §1
Glucose-sensitive sub-clones of the human Panc-1, a cell line derived from a pleiomorphic epithelioid carcinoma of the exocrine pancreas, were obtained essentially as described by Hamil et al. (2008) Biomed. Sci. Instrum. 44:441-6. Briefly, Panc-1 cells were subcultured in 24 well plates, and the medium was supplemented with an additional 5% glucose. […] The resulting sub-lines were then tested for glucose sensitivity by preparing wells of a 96-well plate (5×10^4 cells per well) which were then exposed to cultured medium containing a range of glucose concentrations (low glucose DMEM, DMEM, DMEM+1% glucose, DMEM+2.5% glucose and DMEM+5% glucose). After 24 hrs incubation, the conditioned medium was collected and assayed for insulin secretion by ELISA (Linco; cat# EZHI-14K) in accordance with the manufacturer's instructions. […] Further 96 well plates were prepared using Panc-2H4 (5×10^4 cells per well) in DMEM. After 24 hrs, the medium was switched to DMEM+5% glucose containing various test agents at various concentrations (triplicate wells per condition). After a further 24 hrs, the conditioned medium was harvested and the concentration of insulin was determined by ELISA as described above.
as §2

Experiment [7] deals with Jurkat-D3B cells. The experiment is described as follows: SDF-1α induced migration of Jurkat-D3B cells expressing sstr2. The experiment is classed as cell-based, human. The method, then: Methods: Total mRNA was prepared from Panc-1 cells (a human pancreas cell line which is well known to express high levels of sstr2) using the RNAqueous 4PCR kit (Ambion, Cat code #1914) in accordance with the manufacturer's instructions. The mRNA was then reverse transcribed (using the RETROscript kit; Ambio) to yield a cDNA preparation. A full length cDNA of the sstr2 gene was then obtained by PCR (using a Peltier PTC-200 thermal cycler using the following cycle times and conditions: 94° C. for 2 min, followed by 30 cycles of 94° C., for 30 sec, 55° C. for 30 sec, 72° C. for 1 min and finally 72° C. for 10 min), and isolated by preparative gel electrophoresis. The sequence of the sstr2 cDNA was confirmed by sequencing. The sstr2 cDNA was treated with EcoRI and Xhol to generate sticky ends, which allowed directional cloning into the polylinker of the plasmid pcDNA3.1+ (Invitrogen) followed by ligation ([…] ligation reactions were run with 400 T4 DNA ligase (New England Biolabs) and the maximal amounts of DNA with an insert:plasmid ratio of 3:1 in ligase buffer incubated overnight at 13° C.). […]
A number of individual cell lines were obtained in this way, which expressed significant levels of sstr2 on the cell surface, detected by flow cytometry using the human-sstr2 antibody (Sigma, 50694; see Example 3 for details of the flow cytometry protocol used). […]

T1 sequence (P30874 whole entry): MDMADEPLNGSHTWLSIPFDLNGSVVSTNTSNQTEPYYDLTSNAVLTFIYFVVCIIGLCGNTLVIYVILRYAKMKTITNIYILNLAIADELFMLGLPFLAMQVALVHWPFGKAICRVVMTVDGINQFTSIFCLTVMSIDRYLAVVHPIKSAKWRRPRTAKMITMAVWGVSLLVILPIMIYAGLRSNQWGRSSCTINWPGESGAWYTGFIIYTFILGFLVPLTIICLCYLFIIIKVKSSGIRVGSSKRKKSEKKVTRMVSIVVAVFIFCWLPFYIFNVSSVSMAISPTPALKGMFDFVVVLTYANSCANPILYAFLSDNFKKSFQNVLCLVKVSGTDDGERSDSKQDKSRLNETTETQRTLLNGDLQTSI

For the compound `CC1(C(=O)N[C@H]2CCCCNC2=O)CCCCC1` [(S)-3-(1′-methylcyclohexyl-1′-carbonylamino)-caprolactam], in experiment [1], the “competition with BN83250 binding to sstr2” value is recorded as “compete with BN83250 binding to sstr2 to a similar extent”.
Regarding `C[C@@H]1C[C@H]2[C@@H]3CCC4=CC(=O)C=C[C@]4(C)[C@@]3(F)[C@@H](O)C[C@]2(C)[C@@]1(O)C(=O)CO` [dexamethasone], the “inhibition of serum TNF-alpha” value in experiment [2] (very high / highest doses, 2 hours post LPS) is “more than 90%”.
Consider `CC(C)(C)C(=O)N[C@H]1CCCNC1=O`, for which, in experiment [1] (competition with [3H]-BN83250), the “Hill Slope” value is on record as “approximately −1.0”.
As to `O=C1NCCCC[C@@H]1NC(=O)C12CC3CC(CC(C3)C1)C2` [BN83470, (S)-3-(admantane-1′-carbonylamino)-caprolactam], in experiment [3], the “Rat pituicyte GH suppression assay Max effect” value is 56%. The “competition with BN83250 binding to sstr2” value in experiment [1] is recorded as “compete with BN83250 binding to sstr2 to a similar extent”. Further, in experiment [4], the ““Classical”:“BSCI” potency ratio, Rat” value stood at 0.0008 and the “Rat chemokine-induced PBMC migration assay Max effect” value turned out to be 100%. In experiment [5], the ““Classical”:“BSCI” potency ratio, Human” value was less than 0.00008 and the “Human chemokine-induced THP-1 migration assay Max effect” value is on record as 100%. For the same compound, in experiment [6], the EC50 is greater than 1000 nM, the “Human Panc-2H4 insulin suppression assay Max effect” value is listed as less than 10% and the “inhibition of insulin secretion by Panc-2H4” value is on record as “None of these agents inhibited insulin secretion”.
For the compound `CC(C)(C)C(=O)N[C@H]1CCCNC1=O` [Valerolactam, (S)-3-(2′2′-dimethylpropionoylamino)-tetrahydropyridin-2-one], in experiment [3], the “Rat pituicyte GH suppression assay Max effect” value is on record as 61%. In addition, in experiment [7], the “sensitivity of Jurkat-D3B migration” value was “sensitive to inhibition”. In experiment [4], the ““Classical”:“BSCI” potency ratio, Rat” value was found to be 0.0009 and the “Rat chemokine-induced PBMC migration assay Max effect” value was determined as 100%. The “potency relative to BN83253” value in experiment [5] (MCP-1 induced THP-1 migration, FIG. 5 versus FIG. 4) is reported as 20-50 fold. In addition, in experiment [5], the ““Classical”:“BSCI” potency ratio, Human” value is less than 0.00005 and the “Human chemokine-induced THP-1 migration assay Max effect” value is 100%. In experiment [6], the EC50 was greater than 1000 nM, the “Human Panc-2H4 insulin suppression assay Max effect” value was less than 10% and the “inhibition of insulin secretion by Panc-2H4” value is listed as “None of these agents inhibited insulin secretion”. For the same compound, in experiment [2] (dose-dependent, BN83250 s.c., valerolactam oral gavage), the “inhibition of LPS-induced systemic inflammation” value is on record as “dramatically inhibited”.

Values taken from patent US20120115742A1, “METHODS FOR IDENTIFICATION” (Cambridge Enterprise Limited, priority 2009, published 2012).
